Data on ten compounds can be found in ChEMBL document CHEMBL4715903, “Design, Synthesis, and Biological Evaluation of IRAK4-Targeting PROTACs” (ACS Med Chem Lett, 2021).

Calls of active or inactive are those of the source. The rule behind the calls is not given here.

By IC50 is commonly meant the midpoint of a concentration-inhibition curve.

Experiment [1] deals with TMD8. As to the kind of experiment: Antiproliferative activity against human TMD8 cells harboring MYD88 L265P mutant assessed as inhibition of cell growth incubated for 72 hrs by CCK-8 assay. Format: functional, cell-based. The following applies: TMD8, 72 h. In general terms: Formazan colour is commonly taken as a measure of viable cells.
Experiment [2] deals with OCI-Ly10. In words: Antiproliferative activity against human OCILY10 cells harboring MYD88 L265P mutant assessed as inhibition of cell growth incubated for 72 hrs by CCK-8 assay. Format: functional, cell-based. Particulars: OCI-Ly10, 72 h.
For experiment [3], the target named is T1, Protein cereblon/Interleukin-1 receptor-associated kinase 4 (Homo sapiens) (UniProt Q9NWZ3+Q96SW2). In words: Protac activity at CRBN/IRAK4 in human TMD8 cells assessed as inhibition of NF-kappaB p65 phosphorylation by Western blot analysis. The following applies: dose 0.1-10 µM. Type of experiment: cell-based.
For experiment [4], the target named is T1, Protein cereblon/Interleukin-1 receptor-associated kinase 4 (Homo sapiens). As to the kind of experiment: Protac activity at CRBN/IRAK4 in human OCILY10 cells assessed as inhibition of NF-kappaB p65 phosphorylation by Western blot analysis. Format: cell-based. The following applies: dose 0.1-10 µM.
For experiment [5] the target is unchanged. In words: Protac activity at CRBN/IRAK4 in human TMD8 cells assessed as inhibition of IKKalpha/beta phosphorylation by Western blot analysis. The following applies: dose 0.1-10 µM. Format: cell-based. In general terms: A western blot detects proteins with antibodies after separation by electrophoresis.
The target is the same in experiment [6]. In words: Protac activity at CRBN/IRAK4 in human OCILY10 cells assessed as inhibition of IKKalpha/beta phosphorylation by Western blot analysis. Type of experiment: cell-based. Particulars: dose 0.1-10 µM.
The target is the same in experiment [7]. As to the kind of experiment: Protac activity at CRBN/IRAK4 in human TMD8 cells assessed as inhibition of IRAK4 phosphorylation by Western blot analysis. Format: cell-based. The following applies: dose 0.1-10 µM.
The target is the same in experiment [8]. As to the kind of experiment: Protac activity at CRBN/IRAK4 in human OCILY10 cells assessed as inhibition of IRAK4 phosphorylation by Western blot analysis. The following applies: dose 0.1-10 µM. Type of experiment: cell-based.
Experiment [9] shares this target. As to the kind of experiment: Protac activity at CRBN/IRAK4 in human TMD8 cells harboring MYD88 L265P mutant assessed as induction of IRAK4 degradation at 1 uM in presence of IRAK4 inhibitor, Methyl 4-(5-ethoxy-1-methyl-6-(6-(trifluoromethyl)picolinamido)-1H-benzo[d]imidazol-2-yl)-2,2-dimethylbutanoate by Western blot analysis. Type of experiment: cell-based.
For experiment [10] the target is unchanged. In words: Protac activity at CRBN/IRAK4 in human OCILY10 cells harboring MYD88 L265P mutant assessed as induction of IRAK4 degradation at 1 uM in presence of IRAK4 inhibitor, Methyl 4-(5-ethoxy-1-methyl-6-(6-(trifluoromethyl)picolinamido)-1H-benzo[d]imidazol-2-yl)-2,2-dimethylbutanoate by Western blot analysis. Format: cell-based.
Experiment [11] has the same target. In words: Protac activity at CRBN/IRAK4 in human TMD8 cells harboring MYD88 L265P mutant assessed as induction of IRAK4 degradation at 1 uM in presence of CRBN recruiter, pomalidomide by Western blot analysis. Type of experiment: cell-based.
Experiment [12] shares this target. In words: Protac activity at CRBN/IRAK4 in human OCILY10 cells harboring MYD88 L265P mutant assessed as induction of IRAK4 degradation at 1 uM in presence of CRBN recruiter, pomalidomide by Western blot analysis. Type of experiment: cell-based.
For experiment [13] the target is unchanged. In words: Protac activity at CRBN/IRAK4 in human TMD8 cells harboring MYD88 L265P mutant assessed as induction of IRAK4 degradation at 1 uM pretreated with proteasome inhibitor, MG132 for 2 hrs followed by compound addition by Western blot analysis. Format: cell-based.
For experiment [14] the target is unchanged. In words: Protac activity at CRBN/IRAK4 in human OCILY10 cells harboring MYD88 L265P mutant assessed as induction of IRAK4 degradation at 1 uM pretreated with proteasome inhibitor, MG132 for 2 hrs followed by compound addition by Western blot analysis. Format: cell-based.
The target is the same in experiment [15]. As to the kind of experiment: Protac activity at CRBN/IRAK4 in human TMD8 cells harboring MYD88 L265P mutant assessed as induction of IRAK4 degradation by measuring reduction in IRAK4 protein level at 1 uM by Western blot analysis. Type of experiment: cell-based. Particulars: time 1-24 hrs, TDE = time-dependent effect.
Experiment [16] has the same target. As to the kind of experiment: Protac activity at CRBN/IRAK4 in human OCILY10 cells harboring MYD88 L265P mutant assessed as induction of IRAK4 degradation by measuring reduction in IRAK4 protein level at 1 uM by Western blot analysis. Particulars: time 1-24 hrs, TDE = time-dependent effect. Type of experiment: cell-based.
For experiment [17] the target is unchanged. As to the kind of experiment: Protac activity at CRBN/IRAK4 in human TMD8 cells harboring MYD88 L265P mutant assessed as induction of IRAK4 degradation by measuring reduction in IRAK4 protein level incubated for 24 hrs by Western blot analysis. Type of experiment: cell-based. The following applies: dose 0.1-10 µM.
Experiment [18] shares this target. In words: Protac activity at CRBN/IRAK4 in human OCILY10 cells harboring MYD88 L265P mutant assessed as induction of IRAK4 degradation by measuring reduction in IRAK4 protein level incubated for 24 hrs by Western blot analysis. The following applies: dose 0.1-10 µM. Format: cell-based.
For experiment [19] the target is unchanged. In words: Protac activity at CRBN/IRAK4 in human TMD8 cells harboring MYD88 L265P mutant assessed as induction of IRAK4 degradation by measuring reduction in IRAK4 protein level at 1 uM incubated for 24 hrs by Western blot analysis. Type of experiment: cell-based.
For experiment [20] the target is unchanged. In words: Protac activity at CRBN/IRAK4 in human OCILY10 cells harboring MYD88 L265P mutant assessed as induction of IRAK4 degradation by measuring reduction in IRAK4 protein level at 1 uM incubated for 24 hrs by Western blot analysis. Format: cell-based.
The target is the same in experiment [21]. In words: Protac activity at CRBN/IRAK4 in human OCILY10 cells assessed as inhibition of NFkappaB p65 phosphorylation at 2.5 to 20 uM incubated for 48 hrs by Western blot analysis. The following applies: dose 2.5-20 µM. Format: cell-based.
Experiment [22] relates to OCI-LY19. In words: Antiproliferative activity against human OCILY19 cells harboring wild type MYD88 assessed as inhibition of cell growth incubated for 72 hrs by CCK-8 assay. Format: functional, cell-based.
Experiment [23] has as its target T2, Interleukin-1 receptor-associated kinase 4 (Homo sapiens, UniProt Q9NWZ3).
T2 sequence (Q9NWZ3 whole entry): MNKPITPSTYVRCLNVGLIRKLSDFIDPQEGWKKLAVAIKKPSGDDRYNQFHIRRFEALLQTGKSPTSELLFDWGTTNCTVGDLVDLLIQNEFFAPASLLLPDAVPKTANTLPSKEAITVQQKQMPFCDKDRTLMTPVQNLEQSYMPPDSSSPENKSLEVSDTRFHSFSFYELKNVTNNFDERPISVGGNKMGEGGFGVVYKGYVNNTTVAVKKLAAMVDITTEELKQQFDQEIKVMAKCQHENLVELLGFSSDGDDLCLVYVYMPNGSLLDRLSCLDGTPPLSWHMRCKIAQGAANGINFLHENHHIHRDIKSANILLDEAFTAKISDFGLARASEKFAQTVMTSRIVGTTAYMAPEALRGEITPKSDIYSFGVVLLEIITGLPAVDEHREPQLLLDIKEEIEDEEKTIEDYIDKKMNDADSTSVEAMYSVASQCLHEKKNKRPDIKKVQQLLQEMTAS
In words: Inhibition of human full length N-terminal His6-tagged recombinant IRAK4 expressed in baculovirus-infected Sf21 cells by Z'-LYTE assay.

T1 sequence (Q96SW2 whole entry, looked up, one chain of several): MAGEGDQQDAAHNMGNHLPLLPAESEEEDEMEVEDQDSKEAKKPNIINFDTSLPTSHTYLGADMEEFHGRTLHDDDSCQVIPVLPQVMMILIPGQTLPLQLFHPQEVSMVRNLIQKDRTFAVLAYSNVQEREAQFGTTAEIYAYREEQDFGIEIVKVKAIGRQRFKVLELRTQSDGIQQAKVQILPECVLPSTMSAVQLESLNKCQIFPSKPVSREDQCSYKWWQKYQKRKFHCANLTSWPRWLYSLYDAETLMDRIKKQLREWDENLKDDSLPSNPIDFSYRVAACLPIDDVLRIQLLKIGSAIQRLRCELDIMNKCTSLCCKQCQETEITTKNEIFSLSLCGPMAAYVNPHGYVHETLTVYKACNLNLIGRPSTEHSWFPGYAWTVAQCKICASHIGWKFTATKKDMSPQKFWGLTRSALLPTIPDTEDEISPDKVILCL

In the case of `CCOc1cc2nc(CCC(C)(C)C(=O)NCCOCCOCCNc3cccc4c3C(=O)N(C3CCC(=O)NC3=O)C4=O)n(C)c2cc1NC(=O)c1cccc(C(F)(F)F)n1` (centres undefined), the IC50 amounted to 7.6 µM in [1] and 4.6 µM in experiment [2]. Also, the Activity result in experiment [3], in experiment [4], in experiment [5], in experiment [6], in experiment [7] and in [8] was “Dose-dependent effect” in each case. For the same compound, the Activity entry in [15] was “Tde”; in [16], “Tde”; in experiment [17], “Dose-dependent effect”; in [18] it was “Dose-dependent effect”. Also, the result in experiment [9], in experiment [10], in [11], in experiment [12], in experiment [13] and in [14] was inactive. Further, the outcome in experiment [22] was inactive. For the same compound, the outcome in experiment [19], in experiment [20] and in [21] was Active.
As to `CCOc1cc2nc(CCC(C)(C)C(=O)OC)n(C)c2cc1NC(=O)c1cccc(C(F)(F)F)n1`, the values for the IC50 in [1], in experiment [23] and in experiment [2] were more than 50 µM, 0.0707 µM and more than 50 µM, respectively.
In the case of `CCOc1cc2nc(CCC(C)(C)C(=O)NCCOCCNc3cccc4c3C(=O)N(C3CCC(=O)NC3=O)C4=O)n(C)c2cc1NC(=O)c1cccc(C(F)(F)F)n1` (centres undefined), the outcome in [19] and in [20] was inactive.
Turning to `CCOc1cc2nc(CCC(C)(C)C(=O)NCCCCCCCNc3cccc4c3C(=O)N(C3CCC(=O)NC3=O)C4=O)n(C)c2cc1NC(=O)c1cccc(C(F)(F)F)n1` (centres undefined), the result in experiment [19] was Active. In addition, the result in experiment [20] was inactive.
Take `CCOc1cc2nc(CCC(C)(C)C(=O)NCCOCCOCCNc3cccc4c3C(=O)N(C3CCC(=O)N(C)C3=O)C4=O)n(C)c2cc1NC(=O)c1cccc(C(F)(F)F)n1` (centres undefined): the concentration for half-maximal inhibition (IC50) in experiment [1] is more than 50 µM; in [2] it was 11 µM. The outcome in [19], in [20] and in experiment [21] was inactive.
Take `CCOc1cc2nc(CCC(C)(C)C(=O)NCCCNc3cccc4c3C(=O)N(C3CCC(=O)NC3=O)C4=O)n(C)c2cc1NC(=O)c1cccc(C(F)(F)F)n1` (centres undefined): the result in experiment [19] and in [20] was inactive.
As to `CCOc1cc2nc(CCC(C)(C)C(=O)NCCCCNc3cccc4c3C(=O)N(C3CCC(=O)NC3=O)C4=O)n(C)c2cc1NC(=O)c1cccc(C(F)(F)F)n1` (centres undefined), the result in [19] and in experiment [20] was inactive.
For `CCOc1cc2nc(CCC(C)(C)C(=O)NCCCCCNc3cccc4c3C(=O)N(C3CCC(=O)NC3=O)C4=O)n(C)c2cc1NC(=O)c1cccc(C(F)(F)F)n1` (centres undefined), the outcome in [19] and in experiment [20] was inactive.
For `CCOc1cc2nc(CCC(C)(C)C(=O)NCCCCCCNc3cccc4c3C(=O)N(C3CCC(=O)NC3=O)C4=O)n(C)c2cc1NC(=O)c1cccc(C(F)(F)F)n1` (centres undefined), the outcome in experiment [19] and in experiment [20] was inactive.
Turning to `CCOc1cc2nc(CCC(C)(C)C(=O)NCCNc3cccc4c3C(=O)N(C3CCC(=O)NC3=O)C4=O)n(C)c2cc1NC(=O)c1cccc(C(F)(F)F)n1` (centres undefined), the result in experiment [19] and in experiment [20] was inactive.
